From patent US20260219274A1, “POLYOL SWEETNERS AND CARDIOVASCULAR AND THROMBOTIC EVENT RISK” (THE CLEVELAND CLINIC FOUNDATION, priority 2023, published 2026)

Legend:
[1] = test system: stable subjects undergoing elective diagnostic cardiac evaluations (Discovery Cohort); settings: in vivo
Description: Our first study employed a Discovery Cohort, where we used untargeted metabolomics (semi-quantitative analyses) to analyze plasma samples from 1,157 stable subjects to identify circulating analytes whose levels were associated with future development of adverse cardiovascular events over an ensuing 3 year period. The Discovery Cohort included sequential stable patients (ages 18 years or above) undergoing elective diagnostic coronary angiography for risk evaluation at a quaternary referral center between 2001 and 2007 (GeneBank at the Cleveland Clinic; clinicaltrials.gov identifier: NCT00590200) with clinical and longitudinal outcomes.
In both, the Discovery and Validation Cohorts, Major Adverse Cardiovascular Events (MACE) were defined as death, nonfatal myocardial infarction, or nonfatal cerebrovascular accident (stroke) during follow-up. Adjudicated long term survival data were collected through medical records review and Social Security Death Index query. Cardiovascular disease (CVD) was indicated as presence of peripheral artery disease or coronary artery disease, indicated as any clinical history of myocardial infarction, coronary revascularization (including percutaneous coronary intervention, coronary artery bypass surgery), or angiographic evidence of significant stenosis (≥50%) in 1 or more major coronary arteries. Estimated glomerular filtration rate (eGFR) in both cohorts was calculated based on the recent Chronic Kidney Disease Epidemiology Collaboration 2021 CKD-EPI Creatinine equation.^37 Platelet-related hematology analyses were performed with an Advia 120 hematology analyzer (Siemens, New York, NY).^38 Use of anti-platelet agents (=1556) was defined as either aspirin or a P2Y12 agent or both. All observational studies in this example are reported in compliance with the STrengthening the Reporting of Observational studies in Epidemiology (STROBE)-Statement.^39 Information on gender of study participants of the Discovery and Validation Cohorts is reported in Table 1-3.
For untargeted mass spectrometry analyses, subject plasma samples were derivatized and run on GC-MS analyses as previously described.^19 Raw data files were processed using the metabolomics BinBase database.^45
Continuous variables are summarized as median (interquartile range [IQR]), and categorical variables are presented as %. Difference between groups (e.g. tertiles or quartiles) were examined using Kruskal Wallis test for continuous variables and chisq (χ^2) test for categorical variables. Kaplan-Meier analysis with Cox proportional-hazards regression was used for time-to-event analysis to determine hazard ratios (HR) and 95% confidence intervals (CI) for incident MACE. Adjustments included traditional cardiovascular risk factors (age, sex, diabetes mellitus, systolic blood pressure, low-density lipoprotein cholesterol levels, high-density lipoprotein cholesterol levels, triglyceride levels, smoking status) and high-sensitivity C-reactive protein (hsCRP). We confirmed that the proportionality hazards assumptions were met using the Schoenfeld residuals against the transformed time. Mann-Whitney U-test or Wilcoxon matched-pairs signed rank test were applied to continuous variables to examine differences between 2 groups. Kruskal-Wallis test with Dunn's post hoc test was used for pairwise multiple comparisons of ranked data. Two-way ANOVA with Šidák's multiple comparison post hoc test was used for multiple-group comparisons of aggregometry responses using different concentrations of agonists. For analysis of collagen-dependent platelet adhesion in whole blood, a two-way repeated measures ANOVA with Sidák's multiple comparison post hoc test was used. All reported measurements represent distinct samples. Data analyses were performed with R software (version 4.0.2) and GraphPad Prism software (version 9.1.2). A two-sided P<0.05 was considered statistically significant. […]

washed human platelets = experiment: Intracellular calcium measurements in Fura 2-filled washed platelets; assay type: cell-based; settings: for thrombin-evoked intracellular Ca2+ release: submaximal (0.02 U) thrombin, pre-incubation with the polyol
Description: Measurement of intracellular calcium release in washed platelets was performed as previously described.^41 Further details are provided in supplemental methods.
To isolate washed platelets for intracellular Ca^2+ measurements, PRP was prepared as described above. Next, 100 nM prostaglandin E1 (PGE-1, Catalogue #P5512, Sigma, St. Louis, MO, USA) was added to the PRP and centrifuged at 500×g for 20 min at 22° C. as previously described.^6 After a gentle wash in a modified phosphate buffer saline (NaCl (137 mM), KCl (2.7 mM), Na2HPO4 (12 mM), MgCl2 (1 mM), and glucose (5.5 mM), pH 7.4) with PGE-1 (100 nM), the platelet pellet was spun again at 500×g for 20 min. The platelet pellet was re-suspended in modified Hank's buffered salt solution (HBSS-BSA-glucose; NaCl (0.137 M), KCl (5.4 mM), Na2HPO4 (0.25 mM KH2PO4 (0.44 mM), CaCl2 (1.3 mM), MgSO4 (1.0 mM), NaHCO3 (4.2 mM), glucose (5 mM) and BSA (0.1%)) with 100 nM PGE-1 and incubated with Fura 2-AM ([…]) at 22° C. After 30 min of incubation, an additional centrifugation at 500×g for 30 min was performed to remove excess Fura 2-AM. After resuspension in modified Hank's buffered salt solution the platelet pellet was incubated with xylitol at the indicated concentrations or vehicle for 30 min at 22° C. Intracellular Ca^2+ release was initiated by submaximal concentration of thrombin (0.02 U/mL) and changes in intracellular Ca^2+ monitored via Fura 2-AM fluorescence using 340/380 nm dual-wavelength excitation and an emission of 510 nm.
Washed platelets for intracellular Ca^2+ measurements were prepared by adding 100 nM prostaglandin E1 (PGE-1, Catalogue #P5512, Sigma, St. Louis, MO, USA) to PRP and centrifugation at 500×g, 20 min at 22° C. as previously described^26,51. […] Intra-cellular calcium release was induced by submaximal concentration of thrombin (0.02 U/mL) and changes monitored via Fura 2-AM fluorescence using 340/380 nm dual-wavelength excitation and an emission of 510 nm.

Row | SMILES | HR for MACE [1] | HR with 95% CI [1] | adjusted HR for incident MACE [1] | thrombin-evoked intracellular Ca2+ release (washed human platelets) | erythritol concentration eliciting significant increase in stimulus-dependent (thrombin) intracellular calcium (washed human platelets; threshold, FIG. 17) | adjusted HR [95% CI] for incident (3 year) MACE [1] | hazard ratio (HR) [95% CI] for incident (3 year) MACE [1]
1 | OC[C@@H](O)[C@@H](O)CO [erythritol] | 3.22 [95% CI 1.91-5.41] | 1.31 (1.17-1.46) | 2.95 [1.70-5.12] | enhanced | 45 µM |  | 
2 | OC[C@@H](O)[C@H](O)[C@@H](O)CO [xylitol] |  |  |  | dose-dependently enhanced |  | 1.64 [1.05-2.56] | 1.63 [1.04-2.53]
